Reference: ChEMBL document CHEMBL3853267 (Medchemcomm, 2016)

Assays:
[1] = Activity at NET in rat synaptosomes obtained from whole brain minus striatum and cerebellum assessed as release of [3H]MPP+ by liquid scintillation counting method; assay type: subcellular
Rattus norvegicus [2] = species: Rattus norvegicus; assay: Selectivity ratio of EC50 for NET in rat synaptosomes to EC50 for DAT in rat synaptosomes; assay type: subcellular
Rattus norvegicus [3] = species: Rattus norvegicus; assay: Selectivity ratio of EC50 for DAT in rat synaptosomes to EC50 for SERT in rat synaptosomes; assay type: subcellular
[4] = target: 5-hydroxytryptamine receptor 2B (Homo sapiens, UniProt P41595); assay: Agonist activity at human 5-HT2B receptor expressed in HEK293 cells by [3H]-inositol phosphate accumulation assay; assay type: cell-based
Chain of 5-hydroxytryptamine receptor 2B (P41595 whole entry): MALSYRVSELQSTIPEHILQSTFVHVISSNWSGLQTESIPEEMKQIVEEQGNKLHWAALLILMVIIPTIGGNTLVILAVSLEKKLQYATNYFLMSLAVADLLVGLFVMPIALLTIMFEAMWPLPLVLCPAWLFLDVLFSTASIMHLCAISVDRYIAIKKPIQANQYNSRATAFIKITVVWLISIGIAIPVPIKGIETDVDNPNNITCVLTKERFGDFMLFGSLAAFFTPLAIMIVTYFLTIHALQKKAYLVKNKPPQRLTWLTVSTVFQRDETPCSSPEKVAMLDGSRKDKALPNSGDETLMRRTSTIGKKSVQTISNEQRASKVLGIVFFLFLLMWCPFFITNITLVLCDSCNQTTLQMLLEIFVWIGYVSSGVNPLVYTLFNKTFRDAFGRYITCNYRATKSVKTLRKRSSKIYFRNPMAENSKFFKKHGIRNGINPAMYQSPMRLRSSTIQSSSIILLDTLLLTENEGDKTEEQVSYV

[5] = target: T1, 5-hydroxytryptamine receptor 2A (Homo sapiens, UniProt P28223); assay: Agonist activity at human 5-HT2A receptor expressed in HEK293 cells by [3H]-inositol phosphate accumulation assay; assay type: cell-based
T1 sequence (P28223 whole entry): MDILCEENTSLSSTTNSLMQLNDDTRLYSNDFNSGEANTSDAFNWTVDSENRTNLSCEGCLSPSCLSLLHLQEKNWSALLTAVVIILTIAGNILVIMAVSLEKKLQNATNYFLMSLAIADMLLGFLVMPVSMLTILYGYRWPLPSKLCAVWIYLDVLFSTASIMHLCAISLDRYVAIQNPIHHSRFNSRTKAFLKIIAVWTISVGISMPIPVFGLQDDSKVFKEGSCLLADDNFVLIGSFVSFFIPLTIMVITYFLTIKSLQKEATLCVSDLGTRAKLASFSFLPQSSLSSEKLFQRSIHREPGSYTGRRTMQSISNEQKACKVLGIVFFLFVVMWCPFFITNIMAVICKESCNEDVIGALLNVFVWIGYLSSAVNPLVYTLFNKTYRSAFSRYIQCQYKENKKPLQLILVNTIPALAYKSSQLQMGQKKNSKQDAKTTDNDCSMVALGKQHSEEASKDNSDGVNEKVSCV

[6] = target: T2, 5-hydroxytryptamine receptor 2C (Homo sapiens, UniProt P28335); assay: Agonist activity at human 5-HT2C receptor expressed in HEK293 cells by [3H]-inositol phosphate accumulation assay; assay type: functional, cell-based
T2 sequence (P28335 whole entry): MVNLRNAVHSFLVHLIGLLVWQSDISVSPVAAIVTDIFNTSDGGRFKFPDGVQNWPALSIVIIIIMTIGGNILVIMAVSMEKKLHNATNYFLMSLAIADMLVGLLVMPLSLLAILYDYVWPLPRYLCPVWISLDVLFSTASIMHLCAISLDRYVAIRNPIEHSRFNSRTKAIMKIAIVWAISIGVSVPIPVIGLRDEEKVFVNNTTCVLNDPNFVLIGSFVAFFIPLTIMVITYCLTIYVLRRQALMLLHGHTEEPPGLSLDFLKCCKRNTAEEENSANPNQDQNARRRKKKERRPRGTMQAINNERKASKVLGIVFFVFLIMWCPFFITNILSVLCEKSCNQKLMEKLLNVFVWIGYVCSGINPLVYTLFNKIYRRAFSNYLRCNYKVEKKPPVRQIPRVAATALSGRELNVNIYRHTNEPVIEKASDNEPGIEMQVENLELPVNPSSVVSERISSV

[7] = target: T3, 5-hydroxytryptamine receptor 2C (Homo sapiens) (UniProt P28335); assay: Agonist activity at human 5-HT2C receptor expressed in HEK293 cells by [3H]-inositol phosphate accumulation assay relative to 5-HT; assay type: functional, cell-based
T3 sequence (whole entry): T2 sequence (P28335 whole entry)

[8] = target: T2, 5-hydroxytryptamine receptor 2C; assay: Agonist activity at human 5-HT2C receptor expressed in HEK293 cells assessed as induction of calcium mobilization incubated for 15 mins by calcium 5 dye-based fluorescence assay; assay type: functional, cell-based
[9] = target: Sodium-dependent serotonin transporter (Rattus norvegicus, UniProt P31652); assay: Activity at SERT in rat synaptosomes obtained from whole brain minus striatum and cerebellum assessed as release of [3H]5-HT by liquid scintillation counting method; assay type: subcellular
Chain of Sodium-dependent serotonin transporter (P31652 whole entry): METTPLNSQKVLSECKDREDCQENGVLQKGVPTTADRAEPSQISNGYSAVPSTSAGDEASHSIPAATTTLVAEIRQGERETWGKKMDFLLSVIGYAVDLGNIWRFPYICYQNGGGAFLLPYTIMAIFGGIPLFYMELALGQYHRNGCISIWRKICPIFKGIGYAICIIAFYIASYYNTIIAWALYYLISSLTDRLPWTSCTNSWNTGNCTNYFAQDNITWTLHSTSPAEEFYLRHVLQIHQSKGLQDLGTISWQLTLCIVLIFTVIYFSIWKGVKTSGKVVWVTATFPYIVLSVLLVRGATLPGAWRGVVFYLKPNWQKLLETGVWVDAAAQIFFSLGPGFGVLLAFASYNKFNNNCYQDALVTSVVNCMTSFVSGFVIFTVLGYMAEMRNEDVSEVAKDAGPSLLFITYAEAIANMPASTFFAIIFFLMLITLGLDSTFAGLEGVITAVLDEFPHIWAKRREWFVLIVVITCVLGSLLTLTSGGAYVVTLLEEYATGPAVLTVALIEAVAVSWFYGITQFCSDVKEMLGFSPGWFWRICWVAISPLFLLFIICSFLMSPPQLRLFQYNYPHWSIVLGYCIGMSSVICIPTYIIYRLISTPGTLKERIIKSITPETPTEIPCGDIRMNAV

Rattus norvegicus [10] = species: Rattus norvegicus; assay: Selectivity ratio of EC50 for DAT in rat synaptosomes to EC50 for NET in rat synaptosomes; assay type: subcellular
[11] = target: T1, 5-hydroxytryptamine receptor 2A; assay: Agonist activity at human 5-HT2A receptor expressed in HEK293 cells assessed as induction of calcium mobilization incubated for 15 mins by calcium 5 dye-based fluorescence assay; assay type: cell-based
Rattus norvegicus [12] = species: Rattus norvegicus; assay: Selectivity ratio of EC50 for NET in rat synaptosomes to EC50 for SERT in rat synaptosomes; assay type: subcellular

Structure (SMILES) | EC50 [1] | Ratio EC50 (Rattus norvegicus [3]) | other results
CC(N)CC#Cc1ccccc1 (racemic) | 2.98 µM | 2.6 | Ratio EC50 (Rattus norvegicus [2]): 3
CC(N)Cc1ccc2ccccc2c1 (stereo not drawn) |  |  | EC50 [4]: 0.04 µM; EC50 [5]: 0.466 µM; EC50 [6]: 0.0023 µM; Emax [7]: 20%
C[C@H](N)C/C=C\c1ccccc1 | 0.17 µM |  | EC50 [8]: > 10 µM; EC50 [9]: 0.663 µM
CC(N)C/C=C/c1ccccc1 (racemic) | 0.239 µM | 5 | 
CC(N)/C=C\c1ccccc1 (stereo not drawn) | 0.301 µM |  | Ratio EC50 (Rattus norvegicus [10]): 3.7; EC50 [9]: > 10 µM
C[C@H](N)CC#Cc1ccccc1 | 0.784 µM |  | 
C[C@@H](N)C/C=C\c1ccccc1 | 0.211 µM | 1.2 | Ratio EC50 (Rattus norvegicus [10]): 6.7
C[C@@H](N)CC#Cc1ccccc1 | 0.496 µM | 2.3 | EC50 [11]: > 10 µM
C[C@H](N)C/C=C/c1ccccc1 | 0.138 µM | 5 | Ratio EC50 (Rattus norvegicus [12]): 3.5
CC(N)C/C=C\c1ccccc1 (racemic) | 0.621 µM | 1.4 | 
C[C@@H](N)C/C=C/c1ccccc1 | 0.279 µM | 5 | EC50 [11]: > 10 µM
CC(N)/C=C/c1ccccc1 (stereo not drawn) | 0.308 µM |  | Ratio EC50 (Rattus norvegicus [10]): 2.2; EC50 [9]: > 10 µM
